The text below walks through data of PubChem BioAssay (NCI).

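Following 48 hours of exposure in 96-well plates, responses at five concentrations were used to interpolate endpoints linearly. Abbreviation: GI50, concentration required for 50% inhibition of growth. Definition used: TGI = concentration required for complete inhibition of growth.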

The subject of the assay is MDA-MB-468 breast. Nature of the assay: NCI anticancer screen, dose series, 48 h.
Consider `CC[C@H]1[C@@H]2C=C[C@@H]3[C@H]4C/C=C\C(=O)NCCC[C@@H]5NC(=O)/C(=C(O)/C=C/[C@@H]4C[C@@H]3[C@H]2C[C@H]1C)C5=O`, for which the GI50 was 2.02 µM and the TGI came out at 5.16 µM.
The matching figures for `Nc1c(C(=O)Nc2ccncc2)sc2nc3c(cc12)CCCCCCCC3`: 0.966 µM and 1.76 µM.
On the same counts, the results for `Cn1cc(-c2csc(-c3c[nH]c4ccc(F)cc34)n2)c2cnccc21` are 1.45 µM and 3.19 µM.
On the same counts, the results for `CNCC#Cc1c(F)ccc2c1/C(=C/c1[nH]ccc1OC)C(=O)N2` are 0.279 µM and 0.858 µM.
Regarding `O=C(N[C@@H](c1ccc(Cl)c(Cl)c1)C1CNC1)c1ccc2cnccc2c1`, the GI50 was 0.0617 µM and the TGI was 0.638 µM.
As for `Cc1nn(-c2ccc(Cl)cc2)c2nc3c(nc12)C(=O)c1ccccc1-3`, the GI50 was 58.5 µM and the TGI is greater than 100 µM.
On the same counts, the results for `C#C[C@]1(O)CCC2C3CCc4cc(O)ccc4C3CC[C@@]21C` (some centres undefined) are 1.84 µM and 6.2 µM.
The matching figures for `CCCN1C(=O)N(CCC)C2C1NC(=S)N2/N=C/C=C/c1ccccc1OC` (centres undefined): 0.372 µM and 17 µM.
`O=C(c1ccccc1)c1cc2ccccc2o1`: the GI50 was 48.2 µM and the TGI was greater than 100 µM.
On the same counts, the results for `C=C(C)[C@@H]1CC[C@]2(C)[C@H](CC=C3[C@@H]4CC(C)(C)CC[C@]4(C(N)=O)CC[C@]32C)[C@@]1(C)CCC#N` are 2.41 µM and 8.42 µM.
The matching figures for `Cc1ccc(NC(=O)CC2CC2)cc1-c1ccc(C(=O)NCC2CC2)cc1`: greater than 15 µM and greater than 25 µM.
On the same counts, the results for `CS(=O)(=O)CCNCc1nc(-c2ccc3ncnc(Nc4ccc(OCc5cccc(C(F)(F)F)c5)cc4)c3c2)cs1` are 1.55 µM and greater than 20.9 µM.
In the case of `O=C1OCC2=C1C(c1cccc(Br)c1)c1cc3c(cc1N2CCO)CCC3` (centres undefined), the GI50 was 0.0436 µM and the TGI turned out to be 1.14 µM.
On the same counts, the results for `CCOC(=O)Nc1ccc(-c2nc(-c3cccc(OCCN4CCOCC4)c3)c(-c3ccnc(Br)c3)[nH]2)cc1` are 1.68 µM and 3.66 µM.
The matching figures for `CCSc1ncnc2c1ncn2C1OC(CO)C(O)C1O` (centres undefined): 0.583 µM and 17.6 µM.
The matching figures for `CC(=O)OC12C=CC(=O)N1c1ccccc1C(=O)O2` (centres undefined): greater than 100 µM and greater than 100 µM.
`CN1C(=O)N(C)C2C1NN=c1s/c(=C\c3ccc(Cl)cc3Cl)c(=O)n12` (centres undefined): the GI50 is 0.183 µM and the TGI stood at 33.4 µM.
As for `O=C(CC1(O)C(=O)N(Cc2ccccc2)c2ccc(F)cc21)c1ccc(C(=O)NCC2CCC3(CC2)OOC2(CCCCC2)OO3)cc1` (centres undefined), the GI50 was 1.35 µM and the TGI worked out at 3.39 µM.
On to `COc1cc2c(c(OC)c1OC)-c1ccc(SC)c(=O)cc1C(NC=O)CC2` (centres undefined), for which the GI50 is less than 0.01 µM and the TGI is greater than 100 µM.
The matching figures for `C[C@@H]1CC[C@@H]2[C@@H]1[C@H](OC(=O)/C=C/c1ccccc1)[C@]1(C3CCCCC3)C[C@@H](OC(=O)CO)[C@@]2(C)O1`: 3.33 µM and 11.1 µM.
On the same counts, the results for `COc1ccc2[nH]cc(C3(c4c[nH]c5ccc(OC)cc45)C(=O)Nc4ccc(F)cc43)c2c1` are 2.07 µM and 5.67 µM.
The matching figures for `CCOC(=O)C(Cc1ccc(CCCC(=O)NCCC(=O)Nc2ccc3nc(C)sc3c2)cc1)C(=O)OCC`: 17.6 µM and 58.1 µM.
On to `CC(=O)O[C@@H]1C[C@H]2O[C@@H]3C=C(C)CC[C@]3(C)[C@]1(C)[C@]21CO1`, for which the GI50 is 4.92 µM and the TGI turned out to be 18.2 µM.
On the same counts, the results for `Cc1ncc(C(=O)Nc2ccc(CN3CCN(C)CC3)c(C(F)(F)F)c2)cc1C#Cc1cnc(N)c2ccncc12` are 1.87 µM and 4.4 µM.
The matching figures for `COc1cccc2c1C(=O)c1c(O)c3c(c(O)c1C2=O)C[C@](O)(C(=O)CO)C[C@H]3O[C@@H]1C[C@@H](NC(=O)CCCCCN(C)C2(c3ccc(F)cc3)CC3CCC2C3)[C@H](O)[C@@H](C)O1` (some centres undefined): 5.87 µM and 13.5 µM.
On the same counts, the results for `O=C(Nc1ccncc1)C(=O)c1cn(S(=O)(=O)c2ccc(F)cc2)c2ccccc12` are 1.67 µM and greater than 100 µM.
Turning to `COc1ccc(C(=O)/C=C/c2cc(-c3cc(OC)c(OC)c(OC)c3)n[nH]2)cc1OC`, the GI50 was 0.759 µM and the TGI amounted to 2.18 µM.
The matching figures for `C=CCCCCOc1ccccc1-c1cnc(OCCCCC=C)n1C`: 1.93 µM and 7.86 µM.
The matching figures for `COc1cc(F)ccc1-c1ncnc(Nc2cccc(CS(C)(=N)=O)c2)n1` (centres undefined): 0.895 µM and 5.56 µM.
As to `COc1cc(-c2cc(-c3cc4c([nH]c5ccccc54)c(-c4cc(OC)c(OC)c(OC)c4)n3)cc(-c3ccccc3)n2)cc(OC)c1OC`, the GI50 is 1.73 µM and the TGI came to 4.61 µM.
Regarding `COc1c(OC[C@H](O)CN2CCOCC2)ccc2c3n(c(=NC(=O)c4cccnc4C)nc12)CCN3`, the GI50 was 0.143 µM and the TGI stood at 1.95 µM.
The matching figures for `[Cl][Hg][c]1cc[c]([Hg][Cl])o1`: 1.58 µM and 3.32 µM.
On the same counts, the results for `CC(C)Oc1ccc2cc(-c3nn(CC4CCNCC4)c4ncnc(N)c34)ccc2c1` are 6.9 µM and 21 µM.
Turning to `COc1ccc(-c2nn(-c3ccc(NC(=O)c4ccc(Cl)c(Cl)c4)cc3)cc2-c2ccncc2)cc1Cl`, the GI50 was 3.15 µM and the TGI was greater than 50 µM.
Regarding `Cc1cc2nc3c4cc(Cl)ccc4n(CC(=S)NCCN(C)C)c3nc2cc1C`, the GI50 is 1.95 µM and the TGI turned out to be 3.96 µM.
On the same counts, the results for `COc1cc(Cn2c(-c3ccccc3)c(Cl)c3c2-c2oncc2CC3)cc(OC)c1` are 2.49 µM and 7.69 µM.
The matching figures for `Cn1cc(C2=C(c3cn(CCCCO)c4ccccc34)C(=O)NC2=O)c2ccccc21`: 12 µM and greater than 25 µM.
